Source: PMC3325759 (Journal of Natural Products, 2011)

How the values were obtained:
[1] = target: human recombinant CB1 receptor (Homo sapiens, UniProt P21554); experiment: biochemical; assay type: binding
[2] = test system: H-460 human lung cell lines; experiment: Cytotoxicity to H-460 cells; assay type: cell-based; conditions: all tested concentrations (up to 20 µg/mL)

human recombinant CB1 receptor, sequence (P21554 whole entry): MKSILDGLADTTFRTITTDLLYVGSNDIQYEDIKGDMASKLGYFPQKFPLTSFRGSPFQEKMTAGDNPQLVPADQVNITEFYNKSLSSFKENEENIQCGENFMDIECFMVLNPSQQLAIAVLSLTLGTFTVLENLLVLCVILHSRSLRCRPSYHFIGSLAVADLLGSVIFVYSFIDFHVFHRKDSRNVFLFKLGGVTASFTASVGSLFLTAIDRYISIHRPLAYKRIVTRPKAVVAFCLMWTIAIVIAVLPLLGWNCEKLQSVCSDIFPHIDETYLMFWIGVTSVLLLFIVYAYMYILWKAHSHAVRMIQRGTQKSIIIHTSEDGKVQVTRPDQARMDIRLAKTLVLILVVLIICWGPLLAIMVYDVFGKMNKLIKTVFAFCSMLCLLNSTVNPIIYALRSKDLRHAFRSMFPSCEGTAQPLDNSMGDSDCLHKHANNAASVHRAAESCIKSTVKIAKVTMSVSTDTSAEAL

SMILES | EC50 [1] [nM] | affinity for the CB1 cannabinoid receptor (in words) ([1]; radioligand binding assay) | cytotoxicity (in words) [2]
CCCCCCCCCCCCC/C=C/CCC(=O)N(C)[C@H](CO)COC [compound 3, serinolamide A] | 2300 |  | 
C=C(CCCCCCCCCCCCC)CCCC(=O)O/C=C\COC(C)=O [compound 4, propenediester] |  | completely inactive | inactive
